Data set [1] concerns Delta S protein pseudovirus (nCoV-S-Luc-B.1.617.2) in ACE2-293T cells. The data set is described as follows: microbe, parasite or virus in culture. The format is cell-based. As to conditions: for Levels of viral infection, Delta, Ave.: luciferase activity, Control group as 100%; for IC50: read-out: 50% inhibitory concentrations (IC50) for viral infection, Delta, alkaloid compounds, n = 3.

The subject of data set [2] is Omicron S protein pseudovirus (nCoV-S-Luc-B.1.1.529) in ACE2-293T cells. The data set is described as follows: microbe, parasite or virus in culture. It is filed as cell-based. The following applies: read-out: 50% inhibitory concentrations (IC50) for viral infection, Omicron.

Like-named read-outs stand apart in the source and are kept apart here.

Consider `COc1cc2c3cc1Oc1c4c(cc5c1[C@H](Cc1ccc(cc1)Oc1cc(ccc1O)C[C@H]3N(C)CC2)N(C)CC5)OCO4` [Cepharanoline], for which the “Levels of viral infection, Delta, Ave.” value is 89.65% in data set [1] (Conc. 0.1 μM), 64.01% in data set [1] (Conc. 1 μM) and −3.64% in data set [1] (Conc. 10 μM). Besides, the IC50 is 1640 ± 180 nM in data set [1] and 1310 ± 70 nM in data set [2]. The “Cell Viability (%)” value with ACE2-293T cells was determined as 97.24 ± 0.87%. Also, the “cytotoxic to the ACE2-293T cells (in words)” value with ACE2-293T cells was “caused no damages”.

As to `COc1ccc2cc1Oc1ccc(cc1)C[C@H]1c3cc(c(OC)cc3CCN1C)Oc1c(O)c(OC)cc3c1[C@H](C2)N(C)CC3` [Fangchinoline], the “Levels of viral infection, Delta, Ave.” value in data set [1] (Conc. 1 μM) is reported as 64.54%; in data set [1] (Conc. 5 μM), 27.89%; in data set [1] (Conc. 10 μM), 7.13%. Besides, the figures for the IC50 in data set [1] (Pseudovirus) and in data set [2] (Pseudovirus) were 1820 ± 20 nM and 1440 ± 60 nM, respectively. For the same compound, in the data set on ACE2-293T cells, the “cytotoxic to the ACE2-293T cells (in words)” value is “caused no damages”. Besides, in the data set on ACE2-293T cells (human), the “Cell Viability (%)” value was 95.56 ± 2.82%.

Take Cycleanine: the “Levels of viral infection, Delta, Ave.” value in data set [1] (Conc. 0.1 μM) was 118.65%; in data set [1] (Conc. 1 μM), 88.48%; in data set [1] (Conc. 10 μM) it was −3.84%. Besides, the IC50 was 2210 ± 500 nM in data set [1] and 530 ± 30 nM in data set [2].

The values above are taken from patent US11839610B2 (priority 2022, dated 2023).
